Source: PubChem BioAssay AID282 (DTP/NCI, 2004)
Where “and” joins values, the source holds several entries; their conditions need not be identical. Identical values can stand only once. Inconclusive results and toxic doses are left out.

Test system: BDF1 mice, L1210 terephthalanilide-resistant leukemia ip, survival T/C
Experiment: NCI In Vivo Anticancer Drug Screen. Data for tumor model L1210 Leukemia resistant to A Terephthalanilide; NSC 38280 (intraperitoneal) in B6D2F1 (BDF1) mice
Settings: endpoint: mean survival time, higher = longer survival
Experimental: The antitumor activity of compounds was measured in mice bearing transplantable tumors. Survival or tumor size were measured and the results are expressed as the measurement made in the treated group (T) divided by the measurement made in the vehicle treated control group (C). The tumor model used in this assay is L1210 Leukemia resistant to A Terephthalanilide; NSC 38280 (intraperitoneal) in B6D2F1 (BDF1) mice

[1] = dose: 25.0 mg/kg/injection, schedule: Q01DX Z (ip), vehicle: carboxymethylcellulose (CMC)
[2] = dose: 50.0 mg/kg/injection, schedule: Q01DX Z (ip), vehicle: carboxymethylcellulose (CMC)
[3] = dose: 100.0 mg/kg/injection, schedule: Q01DX Z (ip), vehicle: carboxymethylcellulose (CMC)
[4] = dose: 2.0 mg/kg/injection, schedule: Q01DX010 (ip), vehicle: saline
[5] = dose: 125.0 micrograms/kg/injection, schedule: Q01DX010 (ip), vehicle: saline
[6] = dose: 13.3 mg/kg/injection, schedule: Q01DX010 (ip), vehicle: saline
[7] = dose: 20.0 mg/kg/injection, schedule: Q01DX010 (ip), vehicle: saline
[8] = dose: 500.0 mg/kg/injection, schedule: Q01DX Z (ip), vehicle: saline
[9] = dose: 25.0 mg/kg/injection, schedule: Q01DX010 (ip), vehicle: saline
[10] = dose: 50.0 mg/kg/injection, schedule: Q01DX010 (ip), vehicle: saline
[11] = dose: 10.0 mg/kg/injection, schedule: Q01DX010 (ip), vehicle: saline
[12] = dose: 37.5 mg/kg/injection, schedule: Q01DX Z (ip), vehicle: saline
[13] = dose: 40.0 mg/kg/injection, schedule: Q01DX010 (ip), vehicle: saline
[14] = dose: 100.0 mg/kg/injection, schedule: Q01DX Z (ip), vehicle: saline

CN(C)C(=S)N=Nc1c(O)[nH]c2ccccc12
T/C [1]: 90 % of control | T/C [2]: 98 % of control | T/C [3]: 89 % of control

CS(=O)(=O)OCCN(CCOS(C)(=O)=O)c1ccc(N=O)cc1
T/C (dose: 0.5 mg/kg/injection, schedule: Q01DX010 (ip), vehicle: saline): 122 % of control | T/C (dose: 1.0 mg/kg/injection, schedule: Q01DX010 (ip), vehicle: saline): 115 % of control | T/C [4]: 98 % of control | T/C [5]: 118 % of control | T/C (dose: 1000.0 micrograms/kg/injection, schedule: Q01DX010 (ip), vehicle: saline): 116 % of control

O[C@H](CN1CC1)[C@@H](O)CN1CC1
T/C (dose: 0.18 mg/kg/injection, schedule: Q01DX Z (ip), vehicle: saline): 317 % of control | T/C (dose: 0.25 mg/kg/injection, schedule: Q01DX Z (ip), vehicle: saline): 300 % of control | T/C (dose: 0.37 mg/kg/injection, schedule: Q01DX Z (ip), vehicle: saline): 223 % of control | T/C (dose: 5.0 mg/kg/injection, schedule: Q01DX Z (ip), vehicle: saline): 188 % of control | T/C (dose: 2.0 micrograms/kg/injection, schedule: Q01DX Z (ip), vehicle: saline): 109 % of control | T/C (dose: 4.0 micrograms/kg/injection, schedule: Q01DX Z (ip), vehicle: saline): 101 % of control | T/C (dose: 6.0 micrograms/kg/injection, schedule: Q01DX Z (ip), vehicle: saline): 98 % of control | T/C (dose: 9.0 micrograms/kg/injection, schedule: Q01DX Z (ip), vehicle: saline): 110 % of control | T/C (dose: 18.0 micrograms/kg/injection, schedule: Q01DX Z (ip), vehicle: saline): 115 % of control | T/C (dose: 37.0 micrograms/kg/injection, schedule: Q01DX Z (ip), vehicle: saline): 103 % of control | T/C (dose: 50.0 micrograms/kg/injection, schedule: Q01DX Z (ip), vehicle: saline): 156 % of control | T/C (dose: 62.5 micrograms/kg/injection, schedule: Q01DX010 (ip), vehicle: saline): 120 % of control | T/C (dose: 75.0 micrograms/kg/injection, schedule: Q01DX Z (ip), vehicle: saline): 154 % of control and 162 % of control | T/C [5]: 111 % of control | T/C (dose: 180.0 micrograms/kg/injection, schedule: Q01DX Z (ip), vehicle: saline): 284 % of control | T/C (dose: 210.0 micrograms/kg/injection, schedule: Q01DX Z (ip), vehicle: saline): 235 % of control | T/C (dose: 500.0 micrograms/kg/injection, schedule: Q01DX010 (ip), vehicle: saline): 91 % of control

CNc1nc(Nc2ccc(C3=NCCN3)cc2)nc(Nc2ccc(C3=NCCN3)cc2)n1
T/C [6]: 100 % of control | T/C [7]: 94 % of control | T/C (dose: 30.0 mg/kg/injection, schedule: Q01DX010 (ip), vehicle: saline): 99 % of control | T/C (dose: 45.0 mg/kg/injection, schedule: Q01DX010 (ip), vehicle: saline): 97 % of control

CN=C(NC)c1ccc(NC(=O)Nc2ccc(NC(=O)Nc3ccc(C(=NC)NC)cc3)cc2)cc1
T/C [6]: 101 % of control | T/C [7]: 101 % of control

C=C1C[C@H]2[C@@H]3C=C(C)C4=CC(=O)CC[C@]4(C)[C@H]3CC[C@]2(C)[C@@]1(OC(C)=O)C(C)=O
T/C (dose: 62.5 mg/kg/injection, schedule: Q01DX010 (sc), vehicle: steriod suspending solution): 101 % of control | T/C (dose: 125.0 mg/kg/injection, schedule: Q01DX010 (sc), vehicle: steriod suspending solution): 93 % of control | T/C (dose: 250.0 mg/kg/injection, schedule: Q01DX010 (sc), vehicle: steriod suspending solution): 97 % of control | T/C (dose: 500.0 mg/kg/injection, schedule: Q01DX010 (sc), vehicle: steriod suspending solution): 95 % of control

N[C@@H](Cc1ccc(N(CCCl)CCCl)cc1)C(=O)O
T/C (dose: 2.0 mg/kg/injection, schedule: Q01DX Z (ip), vehicle: carboxymethylcellulose (CMC)): 252 % of control | T/C (dose: 4.0 mg/kg/injection, schedule: Q01DX Z (ip), vehicle: carboxymethylcellulose (CMC)): 155 % of control | T/C (dose: 8.0 mg/kg/injection, schedule: Q01DX Z (ip), vehicle: carboxymethylcellulose (CMC)): 187 % of control | T/C (dose: 12.0 mg/kg/injection, schedule: Q01DX Z (ip), vehicle: carboxymethylcellulose (CMC)): 169 % of control | T/C (dose: 18.0 mg/kg/injection, schedule: Q01DX Z (ip), vehicle: carboxymethylcellulose (CMC)): 91 % of control

O=CCC(O)C(O)C(O)CO (centres undefined)
T/C (dose: 62.5 mg/kg/injection, schedule: Q01DX010 (ip), vehicle: saline): 96 % of control and 104 % of control | T/C (dose: 62.5 mg/kg/injection, schedule: Q01DX Z (ip), vehicle: saline): 112 % of control | T/C (dose: 125.0 mg/kg/injection, schedule: Q01DX010 (ip), vehicle: saline): 113 % of control | T/C (dose: 125.0 mg/kg/injection, schedule: Q01DX Z (ip), vehicle: saline): 108 % of control | T/C (dose: 250.0 mg/kg/injection, schedule: Q01DX010 (ip), vehicle: saline): 105 % of control and 113 % of control | T/C (dose: 250.0 mg/kg/injection, schedule: Q01DX Z (ip), vehicle: saline): 108 % of control | T/C (dose: 500.0 mg/kg/injection, schedule: Q01DX010 (ip), vehicle: saline): 116 % of control and 118 % of control | T/C [8]: 116 % of control

NC12CC3CC(CC(C3)C1)C2
T/C [9]: 108 % of control | T/C [10]: 106 % of control | T/C (dose: 100.0 mg/kg/injection, schedule: Q01DX010 (ip), vehicle: saline): 101 % of control

C=CC(CN1CC1)OC(C)=O (centres undefined)
T/C [4]: 101 % of control | T/C (dose: 4.0 mg/kg/injection, schedule: Q01DX010 (ip), vehicle: saline): 119 % of control | T/C (dose: 16.0 mg/kg/injection, schedule: Q01DX010 (ip), vehicle: saline): 114 % of control

C[C@H]1C(=O)O[C@@H]2CCN3CC=C(COC(=O)[C@](C)(O)[C@@]1(C)O)[C@H]23
T/C (dose: 3.13 mg/kg/injection, schedule: Q01DX010 (ip), vehicle: saline): 97 % of control | T/C (dose: 6.25 mg/kg/injection, schedule: Q01DX010 (ip), vehicle: saline): 102 % of control | T/C (dose: 12.5 mg/kg/injection, schedule: Q01DX010 (ip), vehicle: saline): 97 % of control and 106 % of control | T/C [9]: 103 % of control and 106 % of control | T/C [1]: 107 % of control | T/C [10]: 100 % of control | T/C [2]: 100 % of control | T/C [3]: 119 % of control | T/C (dose: 200.0 mg/kg/injection, schedule: Q01DX Z (ip), vehicle: carboxymethylcellulose (CMC)): 161 % of control

N=C(N)c1ccc(Nc2ccc(C(=N)N)cc2)cc1
T/C (dose: 3.0 mg/kg/injection, schedule: Q01DX010 (ip), vehicle: saline): 94 % of control | T/C (dose: 6.0 mg/kg/injection, schedule: Q01DX010 (ip), vehicle: saline): 91 % of control | T/C (dose: 7.5 mg/kg/injection, schedule: Q01DX Z (ip), vehicle: water): 95 % of control | T/C (dose: 10.0 mg/kg/injection, schedule: Q01DX Z (ip), vehicle: water): 95 % of control | T/C (dose: 12.0 mg/kg/injection, schedule: Q01DX010 (ip), vehicle: saline): 95 % of control | T/C (dose: 15.0 mg/kg/injection, schedule: Q01DX Z (ip), vehicle: water): 95 % of control | T/C (dose: 20.0 mg/kg/injection, schedule: Q01DX Z (ip), vehicle: water): 103 % of control

CC1CCOS(=O)O1 (centres undefined)
T/C [11]: 95 % of control | T/C [7]: 86 % of control | T/C [12]: 112 % of control | T/C [13]: 87 % of control | T/C (dose: 75.0 mg/kg/injection, schedule: Q01DX Z (ip), vehicle: saline): 120 % of control | T/C [14]: 103 % of control | T/C (dose: 150.0 mg/kg/injection, schedule: Q01DX Z (ip), vehicle: saline): 87 % of control

O=c1[nH]c(=O)n(C2CC(O)C(CO)O2)cc1F (centres undefined)
T/C [11]: 103 % of control | T/C (dose: 12.5 mg/kg/injection, schedule: Q01DX Z (ip), vehicle: saline): 118 % of control | T/C [7]: 110 % of control and 119 % of control | T/C (dose: 25.0 mg/kg/injection, schedule: Q01DX Z (ip), vehicle: saline): 116 % of control | T/C [12]: 122 % of control | T/C [13]: 95 % of control | T/C (dose: 50.0 mg/kg/injection, schedule: Q01DX Z (ip), vehicle: saline): 178 % of control | T/C (dose: 80.0 mg/kg/injection, schedule: Q01DX010 (ip), vehicle: saline): 151 % of control | T/C [14]: 183 % of control | T/C [8]: 119 % of control

C[n+]1ccc(NC(=O)c2ccc(NC(=O)c3cccc(C(=O)Nc4ccc(C(=O)Nc5cc[n+](C)cc5)cc4)c3)cc2)cc1
T/C (dose: 5.0 mg/kg/injection, schedule: Q01DX010 (ip), vehicle: saline): 87 % of control | T/C [7]: 116 % of control
